Experiments:
Type in all cases: in vivo
corn (Zea mays) [1] = experiment: Test G Post-Emergence Protocol; conditions: Zea mays, post-emergence, 312 h, read-out: Corn damage rating
Method in brief: (§1)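 Scores run 0 (no damage) to 100 (total damage) and were taken 13 days after spraying. Plants had been raised in pots for 8 days under glasshouse control (24/16 °C, 14 h photoperiod, 65% humidity) and then treated at 15.625, 62.5 or 250 g/ha.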

[2] = tested on: barnyardgrass (Echinochloa crus-galli); experiment: Test G Post-Emergence Protocol; conditions: Echinochloa crus-galli, post-emergence, 312 h, read-out: Barnyardgrass damage rating
Method in brief: as §1

[3] = tested on: redroot pigweed (Amaranthus retroflexus); experiment: Test G Post-Emergence Protocol; conditions: Amaranthus retroflexus, post-emergence, 312 h, read-out: Pigweed, Redroot damage rating
Method in brief: as §1

[4] = tested on: ivy-leaved morning glory (Ipomoea hederacea); experiment: Test G Post-Emergence Protocol; conditions: Ipomoea, post-emergence, 312 h, read-out: Morningglory, Ivy-leaved damage rating
Method in brief: as §1

[5] = tested on: giant foxtail (Setaria faberi); experiment: Test G Post-Emergence Protocol; conditions: Setaria faberi, post-emergence, 312 h, read-out: Foxtail, Giant damage rating
Method in brief: as §1

[6] = tested on: velvetleaf (Abutilon theophrasti); experiment: Test G Post-Emergence Protocol; conditions: Abutilon theophrasti, post-emergence, 312 h, read-out: Velvetleaf damage rating
Method in brief: as §1

corn (Zea mays) [7] = experiment: Test G Pre-Emergence Protocol; conditions: Zea mays, pre-emergence, 312 h, evaluated after 13 days
Method in brief: (§2)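 Herbicidal effect was rated 13 days post-application on a scale where 100 equals total damage. Spraying took place the day after sowing, using 15.625, 62.5 or 250 g/ha of compound in a 50:50 acetone/water solution with 0.5% Tween 20.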

[8] = tested on: barnyardgrass (Echinochloa crus-galli); experiment: Test G Pre-Emergence Protocol; conditions: Echinochloa crus-galli, pre-emergence, 312 h, evaluated after 13 days
Method in brief: as §2

[9] = tested on: redroot pigweed (Amaranthus retroflexus); experiment: Test G Pre-Emergence Protocol; conditions: Amaranthus retroflexus, pre-emergence, 312 h, evaluated after 13 days
Method in brief: as §2

[10] = tested on: ivy-leaved morning glory (Ipomoea hederacea); experiment: Test G Pre-Emergence Protocol; conditions: Ipomoea, pre-emergence, 312 h, evaluated after 13 days
Method in brief: as §2

[11] = tested on: giant foxtail (Setaria faberi); experiment: Test G Pre-Emergence Protocol; conditions: Setaria faberi, pre-emergence, 312 h, evaluated after 13 days
Method in brief: as §2

[12] = tested on: velvetleaf (Abutilon theophrasti); experiment: Test G Pre-Emergence Protocol; conditions: Abutilon theophrasti, pre-emergence, 312 h, evaluated after 13 days
Method in brief: as §2

[13] = 15.625 g ai/ha, evaluated after 13 days (100=total damage to plant; 0=no damage to plant)
[14] = 62.5 g ai/ha, evaluated after 13 days, 100=total damage to plant, 0=no damage to plant
[15] = 250 g ai/ha, evaluated after 13 days, 100=total damage to plant, 0=no damage to plant

## CN1C[C@H](c2ccc(C(F)(F)F)cc2)[C@@H](C(=O)Nc2cnccc2[S+](C)[O-])C1=O (mixture of isomers) [Compound 1751]
Corn (Zea mays) [1]; [13]
  plant injury at 15.625 g/ha: 0%
Corn (Zea mays) [1]; [14]
  plant injury at 62.5 g/ha: 0%
Corn (Zea mays) [1]; [15]
  plant injury at 250 g/ha: 0%
[2]; [13]
  pest or weed control at 15.625 g/ha: 0%
[2]; [14]
  pest or weed control at 62.5 g/ha: 0%
[2]; [15]
  pest or weed control at 250 g/ha: 0%
[3]; [13]
  pest or weed control at 15.625 g/ha: 0%
[3]; [14]
  pest or weed control at 62.5 g/ha: 0%
[3]; [15]
  pest or weed control at 250 g/ha: 10%
[4]; [13]
  pest or weed control at 15.625 g/ha: 0%
[4]; [14]
  pest or weed control at 62.5 g/ha: 0%
[4]; [15]
  pest or weed control at 250 g/ha: 0%
[5]; [13]
  pest or weed control at 15.625 g/ha: 0%
[5]; [14]
  pest or weed control at 62.5 g/ha: 0%
[5]; [15]
  pest or weed control at 250 g/ha: 10%
[6]; [13]
  pest or weed control at 15.625 g/ha: 0%
[6]; [14]
  pest or weed control at 62.5 g/ha: 0%
[6]; [15]
  pest or weed control at 250 g/ha: 10%
Corn (Zea mays) [7]; 15.625 g ai/ha, read-out: Corn damage rating (100=total damage to plant; 0=no damage to plant)
  plant injury at 15.625 g/ha: 0%
Corn (Zea mays) [7]; 62.5 g ai/ha, 100=total damage to plant, 0=no damage to plant, read-out: Corn damage rating
  plant injury at 62.5 g/ha: 0%
Corn (Zea mays) [7]; 250 g ai/ha, read-out: Corn damage rating (100=total damage to plant; 0=no damage to plant)
  plant injury at 250 g/ha: 0%
[8]; 15.625 g ai/ha, read-out: Barnyardgrass damage rating (100=total damage to plant; 0=no damage to plant)
  pest or weed control at 15.625 g/ha: 0%
[8]; 62.5 g ai/ha, 100=total damage to plant, 0=no damage to plant, read-out: Barnyardgrass damage rating
  pest or weed control at 62.5 g/ha: 0%
[8]; 250 g ai/ha, read-out: Barnyardgrass damage rating (100=total damage to plant; 0=no damage to plant)
  pest or weed control at 250 g/ha: 0%
[9]; 15.625 g ai/ha, read-out: Pigweed, Redroot damage rating (100=total damage to plant; 0=no damage to plant)
  pest or weed control at 15.625 g/ha: 0%
[9]; 62.5 g ai/ha, 100=total damage to plant, 0=no damage to plant, read-out: Pigweed, Redroot damage rating
  pest or weed control at 62.5 g/ha: 0%
[9]; 250 g ai/ha, read-out: Pigweed, Redroot damage rating (100=total damage to plant; 0=no damage to plant)
  pest or weed control at 250 g/ha: 10%
[10]; 15.625 g ai/ha, read-out: Morningglory, Ivy-leaved damage rating (100=total damage to plant; 0=no damage to plant)
  pest or weed control at 15.625 g/ha: 0%
[10]; 62.5 g ai/ha, 100=total damage to plant, 0=no damage to plant, read-out: Morningglory, Ivy-leaved damage rating
  pest or weed control at 62.5 g/ha: 0%
[10]; 250 g ai/ha, read-out: Morningglory, Ivy-leaved damage rating (100=total damage to plant; 0=no damage to plant)
  pest or weed control at 250 g/ha: 0%
[11]; 15.625 g ai/ha, read-out: Foxtail, Giant damage rating (100=total damage to plant; 0=no damage to plant)
  pest or weed control at 15.625 g/ha: 0%
[11]; 62.5 g ai/ha, 100=total damage to plant, 0=no damage to plant, read-out: Foxtail, Giant damage rating
  pest or weed control at 62.5 g/ha: 0%
[11]; 250 g ai/ha, read-out: Foxtail, Giant damage rating (100=total damage to plant; 0=no damage to plant)
  pest or weed control at 250 g/ha: 10%
[12]; 15.625 g ai/ha, read-out: Velvetleaf damage rating (100=total damage to plant; 0=no damage to plant)
  pest or weed control at 15.625 g/ha: 0%
[12]; 62.5 g ai/ha, 100=total damage to plant, 0=no damage to plant, read-out: Velvetleaf damage rating
  pest or weed control at 62.5 g/ha: 0%
[12]; 250 g ai/ha, read-out: Velvetleaf damage rating (100=total damage to plant; 0=no damage to plant)
  pest or weed control at 250 g/ha: 0%
